Assay [1] has as its target CB1 receptor (Rattus norvegicus (Rat), UniProt P20272). Description: rCB1 competition-equilibrium binding with [3H]CP-55,940, rat brain membranes. How it is done: Frozen rat brains (CB1 source) are obtained from Pel-Freeze Biologicals (Rogers, Ak.) and stored at −80° C. until use. Membranes are prepared according to the method described by Dodd et al. and used in our laboratory as reported.
(§1) All the cannabinoids discussed in this invention are tested for their ability to bind to CB1 and CB2 receptors using membranes from rat brain or HEK293 cells expressing either mCB2 or hCB2, respectively via competition-equilibrium binding using [^3H]CP-55,940. Results are analyzed using nonlinear regression to determine ligand IC50 (Prism by GraphPad Software, Inc.), and Ki values are calculated from the IC50. IC50 and Ki values are determined from at least three independent experiments.

The target of assay [2] is mCB2 receptor (Mus musculus (Mouse), UniProt P47936). Description: mCB2 competition-equilibrium binding with [3H]CP-55,940, membranes of HEK293 cells expressing mCB2. How it is done:
(§2) HEK293 cells expressing hCB1 or hCB2 or mCB2 receptor are used for membrane preparations according to Abadji et al. The resulting pellet is resuspended in 10 mM Tris-chloride, pH 7.4, with 5 mM MgCl2 and 2 mM EDTA (TME), rapidly frozen in liquid nitrogen and stored at −80° C. for no longer than two months. Protein content is assayed by using the Bio-Rad protein assay according to the manufacturer's protocol.
as §1

The target in assay [3] is hCB2 receptor (Homo sapiens (Human), UniProt P34972). Description: hCB2 competition-equilibrium binding with [3H]CP-55,940, membranes of HEK293 cells expressing hCB2. How it is done:
as §2, §1

Where [4] appears, read: rat brain membranes, [3H]CP-55,940, read-out: rCB1 Ki.
Where [5] appears, read: HEK293 cells expressing mCB2, [3H]CP-55,940, read-out: mCB2 Ki.
The mark [6] stands for this setting: HEK293 cells expressing hCB2, [3H]CP-55,940, read-out: hCB2 Ki.

pKi: −log10 of the molar value. Where two headings read alike, the source gives them in different places. Some results are limits rather than exact numbers.

As a reminder, the pKi is the Ki on a negative log10 scale, so that one unit is a factor of ten. For `CC1=CC[C@@H]2[C@@H](C1)c1c(O)cc(C(C)(C)C(=O)OCCCC#N)cc1OC2(C)C` [Compound 1.8, 3-cyanopropyl-2-((6aR,10aR)-6a,7,10,10a-tetrahydro-1-hydroxy-6,6,9-trimethyl-6H-benzo[c]chromen-3-yl)-2-methylpropanoate], the pKi is 9.30 in assay [1] (setting [4]), 9.15 in assay [2] (setting [5]) and 8.85 in assay [3] (setting [6]).
For the compound `CC1=CC[C@@H]2[C@@H](C1)c1c(O)cc(C(C)(C)C(=O)OCCCN=[N+]=[N-])cc1OC2(C)C` [Compound 1.9, 3-azidopropyl-2-((6aR,10aR)-6a,7,10,10a-tetrahydro-1-hydroxy-6,6,9-trimethyl-6H-benzo[c]chromen-3-yl)-2-methylpropanoate], the pKi in assay [1] (setting [4]) was 9.00; in assay [2] (setting [5]) it was 9.15; in assay [3] (setting [6]) it was 9.10.
On to `CC1=CC[C@@H]2[C@@H](C1)c1c(O)cc(C(C)C(=O)O)cc1OC2(C)C` (stereo partly drawn) [Compound 1.11, 2-((6aR,10aR)-1-hydroxy-6,6,9-trimethyl-6a,7,10,10a-tetrahydro-6H-benzo[c]chromen-3-yl)propanoic acid], for which the pKi in assay [1] (setting [4]), in assay [2] (setting [5]) and in assay [3] (setting [6]) was less than 5.00 in each case.
Take `CC1=CC[C@@H]2[C@@H](C1)c1c(O)cc([C@@H](C)C(=O)O)cc1OC2(C)C` [Compound 1.13, (R)-2-((6aR,10aR)-1-hydroxy-6,6,9-trimethyl-6a,7,10,10a-tetrahydro-6H-benzo[c]chromen-3-yl)propanoic Acid]: the pKi in assay [1] (setting [4]), in assay [2] (setting [5]) and in assay [3] (setting [6]) was less than 5.00 in each case.
With `CC1=CC[C@@H]2[C@@H](C1)c1c(O)cc([C@H](C)C(=O)O)cc1OC2(C)C` [Compound 1.15, (S)-2-((6aR,10aR)-1-hydroxy-6,6,9-trimethyl-6a,7,10,10a-tetrahydro-6H-benzo[c]chromen-3-yl)propanoic Acid], the pKi in assay [1] (setting [4]), in assay [2] (setting [5]) and in assay [3] (setting [6]) was less than 5.00 in each case.
Consider `CC1=CC[C@@H]2[C@@H](C1)c1c(O)cc(C3(C(=O)O)CCC3)cc1OC2(C)C` [Compound 1.17, 1-((6aR,10aR)-1-hydroxy-6,6,9-trimethyl-6a,7,10,10a-tetrahydro-6H-benzo[c]chromen-3-yl)cyclobutanecarboxylic Acid], for which the pKi in assay [1] (setting [4]), in assay [2] (setting [5]) and in assay [3] (setting [6]) was less than 5.00 each time.
Turning to `CC1=CC[C@@H]2[C@@H](C1)c1c(O)cc(C3(C(=O)OCCCCN=[N+]=[N-])CCC3)cc1OC2(C)C` [Compound 1.21, 4-azidobutyl 1-((6aR,10aR)-1-hydroxy-6,6,9-trimethyl-6a,7,10,10a-tetrahydro-6H-benzo[c]chromen-3-yl)cyclo Butanecarboxylate], the pKi is 9.05 in assay [1] (setting [4]), 8.72 in assay [2] (setting [5]) and 8.57 in assay [3] (setting [6]).
The corresponding values for `CCCCCCC(O)(CC(=O)O)c1cc(O)c2c(c1)OC(C)(C)[C@@H]1CC=C(C)C[C@@H]21` (stereo partly drawn) [Compound 1.22, 3-hydroxy-3-((6aR,10aR)-1-hydroxy-6,6,9-trimethyl-6a,7,10,10a-tetrahydro-6H-benzo[c]chromen-3-yl)nonanoic Acid] are 6.22, 6.00 and 6.00.
As to `CCCCCCC1(c2cc(O)c3c(c2)OC(C)(C)[C@@H]2CC=C(C)C[C@@H]32)CC(=O)O1` (stereo partly drawn) [Compound 1.23, 4-hexyl-4-((6aR,10aR)-1-hydroxy-6,6,9-trimethyl-6a,7,10,10a-tetrahydro-6H-benzo[c]chromen-3-yl)oxetan-2-one], the values for the pKi in assay [1], in assay [2] and in assay [3] were 7.80, 7.39 and 7.26, respectively.
For the compound `CC1=CC[C@@H]2[C@@H](C1)c1c(O)cc(CC(=O)O)cc1OC2(C)C` [Compound 1.26, 2-((6aR,10aR)-6a,7,10,10a-tetrahydro-1-hydroxy-6,6,9-trimethyl-6H-benzo[c]chromen-3-yl)acetic Acid], the pKi in assay [1] (setting [4]), in assay [2] (setting [5]) and in assay [3] (setting [6]) was less than 5.00 in each case.

The record behind these values is patent publication US10882838B2, “Cannabinergic compounds and uses thereof” (Northeastern University, priority 2012, dated 2021).
